Test results taken from patent US20140350014A1, “COMPOUNDS FOR INHIBITING THE INTERACTION OF BCL2 WITH BINDING PARTNERS” (NOVARTIS AG, priority 2011, published 2014).

Columns and labels:
[1] = target: BCL-2 binding to BAK peptide (Homo sapiens, UniProt P10415); assay: BCL2 SPR solution inhibition assay, BAK peptide surface (Biacore A100); conditions: read-out: BCL2_SPR IC50 BAK
From the text: (§1) 33The present method includes utility of a Surface plasmon resonance (SPR)-based biosensor (Bia34core™′ GE Healthcare, Uppsala, Sweden) to characterize BCL-2 inhibitors. 35
(§2) 36Biacore™ utilizes the phenomenon of surface plasmon resonance (SPR) to detect and measure 37binding interactions. In a typical Biacore experiment, one of the interacting molecules (ligand) is i38mmobilized on a flexible dextran matrix while the interacting partner (analyte) is allowed to fl39ow across that surface. A binding interaction results in an increase in mass on the sensor surface 40and a corresponding direct change in the refractive index of the medium in the vicinity of the 41sensor surface. Changes in refractive index or signal are recorded in resonance units (R.U.) Signal 42changes due to association and dissociation of complexes are monitored in a non-invasive manne43r, continuously and in real-time, the results of which are reported in the form of a sensorgram.44
(§3) The SPR assay is con45figured to examine solution inhibition of BCL-2 binding to peptide derivatized sensor surfa46ces to generate IC50 values as a measure of inhibitor potency.
(§4) Biacore™ A100 (GE Healthcare, Uppsala, Sweden) was used to conduct all experiments reported herein. Sensor surface preparation and all interaction analyses experiments were performed at 25° C. Reagents were purchased from GE Healthcare. Running buffer containing 10 mM Hepes, pH7.4, 150 mM sodium chloride, 1.25 mM Dithiothreitol, 3% Dimethyl sulfoxide and 0.05% polysorbate 20 were utilized throughout all analyses.
(§5) Biotinylated BAK, BAD and NOXA peptides were diluted to 10 nM in running buffer and captured onto a sensor surface pre-derivatized with streptavidin (sensor chip SA) to peptide surface densities in the range 50-100 R.U. Peptide captured surfaces were blocked with 500 μM PEO2-Biotin.
(§6) Interaction analyses were performed by first equilibrating each sample within a 6 point three fold compound dilution series in the range 16 μM to […] with 56 nM BCL-2 for one hour during instrument start-up procedures. Protein compound mixtures were then injected over each peptide surface in parallel for 60 seconds at a flow-rate of 30 μL/min. 56 nM BCL-2 control samples were also prepared and run at regular intervals during the assay. Surface regeneration was performed at the end of each analysis cycle by two 30 second injections of 10 mM Glycine, pH 2.5, 1M Sodium Chloride, 0.05% polysorbate 20. Samples and control compound samples were run in duplicate and controls are also run at regular intervals during the assay to monitor surface and assay performance.
(§7) Data analyses are carried out using Biacore™ A100 evaluation software v1.1 to validate assay quality. Binding level report points were used relative to BCL-2 control samples to calculate % inhibition values for each compound protein mixture. […] The range of data shown in table 1 represents the high and low IC50 values obtained from multiple experiments.

[2] = target: BCL-2 binding to BAD peptide (Homo sapiens, UniProt P10415); assay: BCL2 SPR solution inhibition assay, BAD peptide surface (Biacore A100); conditions: read-out: BCL2_SPR IC50 BAD
From the text: as §1, §2, §3, §4, §5, §6, §7

Sequence of BCL-2 binding to BAD peptide (P10415 whole entry): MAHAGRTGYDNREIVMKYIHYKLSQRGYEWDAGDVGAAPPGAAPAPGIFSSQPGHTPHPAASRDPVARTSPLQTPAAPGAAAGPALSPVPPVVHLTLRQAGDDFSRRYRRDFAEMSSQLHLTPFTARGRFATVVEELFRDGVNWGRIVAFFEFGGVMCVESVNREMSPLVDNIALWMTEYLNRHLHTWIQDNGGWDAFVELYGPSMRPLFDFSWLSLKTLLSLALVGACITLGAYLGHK
Sequence of BCL-2 binding to BAK peptide (P10415 whole entry): as above

Compound | IC50 [1] [nM] | IC50 [2] [nM]
CCCCN(CCCC)C(=O)c1cc(C)n(-c2ccc(-c3cccc(Cl)c3Cl)cc2C(=O)N2Cc3ccccc3C[C@H]2CO)n1 [Example 45] | 7410 to 7540 | 7160 to 7600
CCCCN(CCCC)C(=O)c1cc(C)n(-c2ccc(-c3ccc(C(=O)NC)c(Cl)c3)cc2C(=O)N2Cc3ccccc3C[C@H]2CO)n1 [Example 58] | 111 to 112 | 151 to 152
CCCCN(CCCC)C(=O)c1cc(C)n(-c2ccc(-c3ccccc3F)cc2C(=O)N2Cc3ccccc3C[C@H]2CO)n1 [Example 24] | 3360 to 4630 | 3010 to 3410
CCCCN(CCCC)C(=O)c1nn(-c2ccc(-c3ccc(N(C)C)nc3)cc2C(=O)N2Cc3ccccc3C[C@H]2CO)c(C)c1Cl [Example 8] | 767 to 786 | 745 to 750
CCCCN(CCCC)C(=O)c1cc(C)n(-c2ccc(-c3ccc(OC)c(Cl)c3)cc2C(=O)N2Cc3ccccc3C[C@H]2CO)n1 [Example 30] | 510 to 591 | 651 to 676
CCCCN(CCCC)C(=O)c1nn(-c2ccc(-c3ccc(N)nc3)cc2C(=O)N2Cc3ccccc3C[C@H]2CO)c(C)c1Cl [Example 6] | 210 to 252 | 231 to 288
CCCCN(CCCC)C(=O)c1cc(C)n(-c2ccc(-c3ccc(S(=O)(=O)N4CCCCC4)cc3)cc2C(=O)N2Cc3ccccc3C[C@H]2CO)n1 [Example 26] | 437 to 484 | 584 to 672
CCCCN(CCCC)C(=O)c1cc(C)n(-c2ccc(N3CCN(Cc4ccc(Cl)cc4)C(=O)C3)cc2C(=O)N2Cc3ccccc3C[C@H]2CO)n1 [Example 3, (S)—N,N-dibutyl-1-(4-(4-(4-chlorobenzyl)-3-oxopiperazin-1-yl)-2-(3-(hydroxymethyl)-1,2,3,4-tetrahydroisoquinoline-2-carbonyl)phenyl)-5-methyl-1H-pyrazole-3-carboxamide] | 512 to 515 | 474 to 506
CCCCN(CCCC)C(=O)c1cc(C)n(-c2ccc(-c3ccccc3C#N)cc2C(=O)N2Cc3ccccc3C[C@H]2CO)n1 [Example 40] | 4940 to 5880 | 6490 to 7830
CCCCN(CCCC)C(=O)c1nn(-c2ccc(-c3cc[nH]n3)cc2C(=O)N2Cc3ccccc3C[C@H]2CO)c(C)c1Cl [Example 7] | 609 to 613 | 739 to 770
CCCCN(CCCC)C(=O)c1cc(C)n(-c2ccc(-c3ccc(OC)c(OC)c3)cc2C(=O)N2Cc3ccccc3C[C@H]2CO)n1 [Example 52] | 471 to 479 | 567 to 629
CCCCN(CCCC)C(=O)c1cc(C)n(-c2ccc(-c3ccc(S(=O)(=O)N4CCOCC4)cc3)cc2C(=O)N2Cc3ccccc3C[C@H]2CO)n1 [Example 48] | 665 to 675 | 953 to 964
CCCCN(CCCC)C(=O)c1cc(C)n(-c2ccc(-c3c(C)noc3C)cc2C(=O)N2Cc3ccccc3C[C@H]2CO)n1 [Example 41] | 1800 to 2550 | 1930 to 2030
CCCCN(CCCC)C(=O)c1cc(C)n(-c2ccc(-c3ccc(Cl)c(C(=O)NC)c3)cc2C(=O)N2Cc3ccccc3C[C@H]2CO)n1 [Example 35] | 357 to 366 | 515 to 547
CCCCN(CCCC)C(=O)c1cc(C)n(-c2ccc(-c3cc(F)cc(C(=O)NC)c3)cc2C(=O)N2Cc3ccccc3C[C@H]2CO)n1 [Example 61] | 331 to 344 | 458 to 474
CCCCN(CCCC)C(=O)c1cc(C)n(-c2ccc(-c3ccc(F)c(C#N)c3)cc2C(=O)N2Cc3ccccc3C[C@H]2CO)n1 [Example 32] | 359 to 375 | 410 to 465
CCCCN(CCCC)C(=O)c1cc(C)n(-c2ccc(-c3cc(OC)c(OC)c(OC)c3)cc2C(=O)N2Cc3ccccc3C[C@H]2CO)n1 [Example 56] | 215 to 238 | 284 to 296
CCCCN(CCCC)C(=O)c1nn(-c2ccc(-c3ccccc3)cc2C(=O)N2Cc3ccccc3C[C@H]2CO)c(C)c1Cl [Example 11] | 1400 to 1490 | 1480 to 1580
CCCCN(CCCC)C(=O)c1cc(C)n(-c2ccc(N3CCN(c4ccccc4)CC3)cc2C(=O)N2Cc3ccccc3C[C@H]2CO)n1 [Example 15] | 552 to 713 | 668 to 770
CCCCN(CCCC)C(=O)c1nn(-c2ccc(-c3cccnc3)cc2C(=O)N2Cc3ccccc3C[C@H]2CO)c(C)c1Cl [Example 5] | 253 to 262 | 218 to 236
CCCCN(CCCC)C(=O)c1cc(C)n(-c2ccc(-c3cccc(OC)c3)cc2C(=O)N2Cc3ccccc3C[C@H]2CO)n1 [Example 49] | 626 to 696 | 896 to 978
CCCCN(CCCC)C(=O)c1cc(C)n(-c2ccc(-c3ccc(C)c(C)c3)cc2C(=O)N2Cc3ccccc3C[C@H]2CO)n1 [Example 50] | 793 to 883 | 881 to 933
CCCCN(CCCC)C(=O)c1cc(C)n(-c2ccc(N3CCN(C)CC3)cc2C(=O)N2Cc3ccccc3C[C@H]2CO)n1 [Example 17] | 1570 to 1640 | 2640 to 3050
CCCCN(CCCC)C(=O)c1cc(C)n(-c2ccc(-c3ccc(Cl)c(C(=O)N(C)C)c3)cc2C(=O)N2Cc3ccccc3C[C@H]2CO)n1 [Example 39] | 617 to 657 | 727 to 738
CCCCN(CCCC)C(=O)c1cc(C)n(-c2ccc(-c3ccc(Cl)c(C(N)=O)c3)cc2C(=O)N2Cc3ccccc3C[C@H]2CO)n1 [Example 34] | 426 to 429 | 600 to 623
CCCCN(CCCC)C(=O)c1cc(C)n(-c2ccc(-c3ccc(NC(C)=O)cc3)cc2C(=O)N2Cc3ccccc3C[C@H]2CO)n1 [Example 33] | 339 to 434 | 455 to 553
CCCCN(CCCC)C(=O)c1cc(C)n(-c2ccc(N3CCN(Cc4ccccc4)C(=O)C3)cc2C(=O)N2Cc3ccccc3C[C@H]2CO)n1 [Example 20] | 119 to 137 | 136 to 143
CCCCN(CCCC)C(=O)c1cc(C)n(-c2ccc(-c3cccc(S(C)(=O)=O)c3)cc2C(=O)N2Cc3ccccc3C[C@H]2CO)n1 [Example 38] | 632 to 656 | 885 to 891
CCCCN(CCCC)C(=O)c1cc(C)n(-c2ccc(-c3ccc(Cl)cc3)cc2C(=O)N2Cc3ccccc3C[C@H]2CO)n1 [Example 63] | 1710 to 1850 | 2070 to 2140
